In US9108983B2, “Pyrrole compounds, a process for their preparation and pharmaceutical compositions containing them” (LES LABORATOIRES SERVIER, priority 2013, dated 2015) one finds IC50 data, which are given here for 17 compounds.

Counter-ions that a name gives are not always drawn.

The target in one experiment is Bcl-2 protein (histag-Bcl-2, UniProtKB P10415) (Homo sapiens (Human), UniProt P10415). Nature of the experiment: Inhibition of Bcl-2 by the fluorescence polarisation technique. Type of experiment: binding. The settings on record: incubation for 2 hours, read-out: IC50 (nM) Bcl-2 FP. In short, it runs like this: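 Fluorescence polarisation competition: His-tagged Bcl-2 (2.50×10^−8 M final) with fluorescein-labelled peptide (1.00×10^−8 M final) in 10 mM Hepes, 150 mM NaCl, 0.05% Tween20, pH 7.4. Increasing compound concentrations were added. Polarisation was read after 2 h incubation.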
A general note: Polarisation of emitted light reports the rotation of a fluorescent probe.

Experiment [1] concerns RS4;11 leukaemia tumour line. Nature of the experiment: In vitro cytotoxicity (Microculture Tetrazolium Assay). Type of experiment: cell-based. Particulars: Homo sapiens, RS4-11, 48 h, RS4;11 cells, exposed for 48 hours, cell viability; read-out: IC50 (nM) MTT RS4;11. The protocol:
The cytotoxicity studies were carried out on the RS4;11 leukaemia tumour line.
The cells are distributed onto microplates and exposed to the test compounds for 48 hours.
The cell viability is then quantified by a colorimetric assay, the Microculture Tetrazolium Assay (Cancer Res., 1987, 47, 939-942).

Sequence of Bcl-2 protein (P10415 whole entry): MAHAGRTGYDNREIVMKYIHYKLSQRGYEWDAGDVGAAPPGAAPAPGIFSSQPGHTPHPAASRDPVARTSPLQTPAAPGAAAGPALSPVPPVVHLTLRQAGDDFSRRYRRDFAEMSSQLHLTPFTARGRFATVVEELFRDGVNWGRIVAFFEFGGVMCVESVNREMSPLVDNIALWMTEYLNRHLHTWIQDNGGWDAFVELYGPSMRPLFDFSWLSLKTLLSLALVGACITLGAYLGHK

Turning to `Cc1c(C(=O)N(c2ccc(O)cc2)c2cnc3c(ccn3C)c2)cc(-c2cc(Cl)ccc2C(=O)N2Cc3ccccc3C[C@H]2CN2CCN(C)CC2)n1C` [Example 102, 5-(5-Chloro-2-{[(3S)-3-[(4-methylpiperazin-1-yl)methyl]-3,4-dihydroisoquinolin-2(1H)-yl]carbonyl}phenyl)-N-(4-hydroxyphenyl)-1,2-dimethyl-N-(1-methyl-1H-pyrrolo[2,3-b]pyridin-5-yl)-1H-pyrrole-3-carboxamide trihydrochloride], the IC50 – broadly, the midpoint of a concentration-inhibition curve – at Bcl-2 protein was 2 nM; in experiment [1], 6.51 nM.
The like results for `Cc1c(C(=O)N(c2ccc(O)cc2)c2cc(C#N)n(C)c2)cc(-c2cc(Cl)ccc2C(=O)N2Cc3ccccc3C[C@H]2CN2CCOCC2)n1C` [Example 108, 5-(5-Chloro-2-{[(3S)-3-(morpholin-4-ylmethyl)-3,4-dihydroisoquinolin-2(1H)-yl]carbonyl}phenyl)-N-(5-cyano-1-methyl-1H-pyrrol-3-yl)-N-(4-hydroxyphenyl)-1,2-dimethyl-1H-pyrrole-3-carboxamide hydrochloride] were, in that order, 3.9 nM and 15.4 nM.
In the case of `Cc1c(C(=O)N(c2ccc(O)cc2)c2cccc(C#N)n2)cc(-c2cc(Cl)ccc2C(=O)N2Cc3ccccc3C[C@H]2CN2CCOCC2)n1C` [Example 109, 5-(5-Chloro-2-{[(3S)-3-(morpholin-4-ylmethyl)-3,4-dihydroisoquinolin-2(1H)-yl]carbonyl}phenyl)-N-(6-cyanopyridin-2-yl)-N-(4-hydroxyphenyl)-1,2-dimethyl-1H-pyrrole-3-carboxamide hydrochloride], the IC50 was 91.5 nM on Bcl-2 protein and 930 nM in experiment [1].
As to `Cc1c(C(=O)N(c2ccc(O)cc2)c2cc(C#N)ccn2)cc(-c2cc(Cl)ccc2C(=O)N2Cc3ccccc3C[C@H]2CN2CCOCC2)n1C` [Example 110, 5-(5-Chloro-2-{[(3S)-3-(morpholin-4-ylmethyl)-3,4-dihydroisoquinolin-2(1H)-yl]carbonyl}phenyl)-N-(4-cyanopyridin-2-yl)-N-(4-hydroxyphenyl)-1,2-dimethyl-1H-pyrrole-3-carboxamide hydrochloride], the 50% inhibitory concentration (IC50) on Bcl-2 protein is 8.5 nM; in experiment [1], 39.5 nM.
The like results for `Cc1c(C(=O)N(c2ccc(O)cc2)c2cnn(C)c2)cc(-c2cc(Cl)ccc2C(=O)N2Cc3ccccc3C[C@H]2CN2CCN3CCOC[C@@H]3C2)n1C` [Example 115, 5-(5-Chloro-2-{[(3S)-3-[(9aS)-hexahydropyrazino[2,1-c][1,4]oxazin-8(1H)-ylmethyl]-3,4-dihydroisoquinolin-2(1H)-yl]carbonyl}phenyl)-N-(4-hydroxyphenyl)-1,2-dimethyl-N-(1-methyl-1H-pyrazol-4-yl)-1H-pyrrole-3-carboxamide dihydrochloride] were, in that order, 3.6 nM and 18.3 nM.
In the same order, the values of `Cc1c(C(=O)N(c2ccc(O)cc2)c2cnn(C)c2)cc(-c2cc(Cl)ccc2C(=O)N2Cc3ccccc3C[C@H]2CN2CCN3CCOC[C@H]3C2)n1C` [Example 116, 5-(5-Chloro-2-{[(3S)-3-[(9aR)-hexahydropyrazino[2,1-c][1,4]oxazin-8(1H)-ylmethyl]-3,4-dihydroisoquinolin-2(1H)-yl]carbonyl}phenyl)-N-(4-hydroxyphenyl)-1,2-dimethyl-N-(1-methyl-1H-pyrazol-4-yl)-1H-pyrrole-3-carboxamide dihydrochloride] are 3.4 nM and 47.8 nM.
In the same order, the values of `Cc1c(C(=O)N(c2ccc(O)cc2)c2cnn(C3CC3)c2)cc(-c2cc(Cl)ccc2C(=O)N2Cc3ccccc3C[C@H]2CN2CCOCC2)n1C` [Example 122, 5-(5-Chloro-2-{[(3S)-3-(morpholin-4-ylmethyl)-3,4-dihydroisoquinolin-2(1H)-yl]carbonyl}phenyl)-N-(1-cyclopropyl-1H-pyrazol-4-yl)-N-(4-hydroxyphenyl)-1,2-dimethyl-1H-pyrrole-3-carboxamide] are 3.4 nM and 82.4 nM.
Consider `Cc1c(C(=O)N(c2ccc(O)cc2)c2cnn(C3COC3)c2)cc(-c2cc(Cl)ccc2C(=O)N2Cc3ccccc3C[C@H]2CN2CCOCC2)n1C` [Example 126, 5-(5-Chloro-2-{[(3S)-3-(morpholin-4-ylmethyl)-3,4-dihydroisoquinolin-2(1H)-yl]carbonyl}phenyl)-N-(4-hydroxyphenyl)-1,2-dimethyl-N-[1-(oxetan-3-yl) 1H-pyrazol-4-yl]-1H-pyrrole-3-carboxamide], for which the IC50 came to 4.2 nM at Bcl-2 protein and 49.2 nM in experiment [1].
In the same order, the values of `Cc1c(C(=O)N(c2ccc(O)cc2)c2cnn(C3CCOC3)c2)cc(-c2cc(Cl)ccc2C(=O)N2Cc3ccccc3C[C@H]2CN2CCOCC2)n1C` (stereo partly drawn) [Example 127, 5-(5-Chloro-2-{[(3S)-3-(morpholin-4-ylmethyl)-3,4-dihydroisoquinolin-2(1H)-yl]carbonyl}phenyl)-N-(4-hydroxyphenyl)-1,2-dimethyl-N-[1-(tetrahydrofuran-3-yl)-1H-pyrazol-4-yl]-1H-pyrrole-3-carboxamide hydrochloride] are 5.3 nM and 111 nM.
In the same order, the values of `Cc1c(C(=O)N(c2ccccc2)c2cnc3c(c2)CCN3C)cc(-c2cc(Cl)ccc2C(=O)N2Cc3ccccc3C[C@H]2CN2CCOCC2)n1C` [Example 129, 5-(5-Chloro-2-{[(3S)-3-(morpholin-4-ylmethyl)-3,4-dihydroisoquinolin-2(1H)-yl]carbonyl}phenyl)-1,2-dimethyl-N-(1-methyl-2,3-dihydro-1H-pyrrolo[2,3-b]-pyridin-5-yl)-N-phenyl-1H-pyrrole-3-carboxamide] are 18.1 nM and 275 nM.
In the same order, the values of `Cc1c(C(=O)N(c2ccc(O)cc2)c2cnn(C)c2)cc(-c2cc(Cl)ccc2C(=O)N2Cc3ccccc3C[C@H]2CN2CC3(CCO3)C2)n1C` [Example 207, 5-(5-Chloro-2-{[(3S)-3-(1-oxa-6-azaspiro[3.3]hept-6-ylmethyl)-3,4-dihydroisoquinolin-2(1H)-yl]carbonyl}phenyl)-N-(4-hydroxyphenyl)-1,2-dimethyl-N-(1-methyl-1H-pyrazol-4-yl)-1H-pyrrole-3-carboxamide] are 4.6 nM and 32.2 nM.
As to `COc1cc(C(=O)N2Cc3ccccc3C[C@H]2CN2CCOCC2)c(-c2cc(C(=O)N(c3ccc(O)cc3)c3cnc4c(ccn4C)c3)c(C)n2C)cc1F` [Example 209, 5-(5-Fluoro-4-methoxy-2-{[(3S)-3-(morpholin-4-ylmethyl)-3,4-dihydroisoquinolin-2(1H)-yl]carbonyl}phenyl)-N-(4-hydroxyphenyl)-1,2-dimethyl-N-(1-methyl-1H-pyrrolo[2,3-b]pyridin-5-yl)-1H-pyrrole-3-carboxamide hydrochloride], the concentration for half-maximal inhibition (IC50) at Bcl-2 protein was found to be 7.4 nM; in experiment [1], 25.4 nM.
The like results for `Cc1c(C(=O)N(c2ccc(O)cc2)c2cnn(C3CC3)c2)cc(-c2cc(F)ccc2C(=O)N2Cc3ccccc3C[C@H]2CN2CCOCC2)n1C` [Example 214, N-(1-Cyclopropyl-1H-pyrazol-4-yl)-5-(5-fluoro-2-{[(3S)-3-(morpholin-4-ylmethyl)-3,4-dihydroisoquinolin-2(1H)-yl]carbonyl}phenyl)-N-(4-hydroxyphenyl)-1,2-dimethyl-1H-pyrrole-3-carboxamide hydrochloride] were, in that order, 6.3 nM and 236 nM.
The like results for `COCCc1c(C(=O)N(c2ccc(O)cc2)c2cnc3c(c2)CCN3C)cc(-c2cc3c(cc2C(=O)N2Cc4ccccc4C[C@H]2CN2CCOCC2)OCO3)n1C` [Example 358, N-(4-Hydroxyphenyl)-2-(2-methoxyethyl)-1-methyl-N-(1-methyl-2,3-dihydro-1H-pyrrolo[2,3-b]pyridin-5-yl)-5-(6-{[(3S)-3-(morpholin-4-ylmethyl)-3,4-dihydroisoquinolin-2(1H)-yl]carbonyl}-1,3-benzodioxol-5-yl)-1H-pyrrole-3-carboxamide hydrochloride] were, in that order, 14.8 nM and 165 nM.
The like results for `Cc1c(C(=O)N(c2ccncc2)c2ccc(O)cc2)cc(-c2cc(F)ccc2C(=O)N2Cc3ccccc3C[C@H]2CN2CCOCC2)n1C` [Example 384, 5-(5-Fluoro-2-{[(3S)-3-(morpholin-4-ylmethyl)-3,4-dihydroisoquinolin-2(1H)-yl]carbonyl}phenyl)-N-(4-hydroxyphenyl)-1,2-dimethyl-N-(pyridin-4-yl)-1H-pyrrole-3-carboxamide hydrochloride] were, in that order, 9.7 nM and 216 nM.
As to `Cc1c(C(=O)N(c2ccc(O)cc2)c2cnc3c(ccn3C)c2)cc(-c2cc(F)ccc2C(=O)N2Cc3ccccc3C[C@H]2CN2CCOCC2)n1C` [Example 385, 5-(5-Fluoro-2-{[(3S)-3-(morpholin-4-ylmethyl)-3,4-dihydroisoquinolin-2(1H)-yl]carbonyl}phenyl)-N-(4-hydroxyphenyl)-1,2-dimethyl-N-(1-methyl-1H-pyrrolo[2,3-b]pyridin-5-yl)-1H-pyrrole-3-carboxamide hydrochloride], the results for the IC50 (on Bcl-2 protein; in experiment [1]) were 5.7 nM and 28.7 nM, respectively.
The like results for `Cc1c(C(=O)N(c2ccc(O)cc2)c2cc3ccn(C)c3cn2)cc(-c2cc3c(cc2C(=O)N2Cc4ccccc4C[C@H]2CN2CCOCC2)OCO3)n1C` [Example 387, N-(4-Hydroxyphenyl)-1,2-dimethyl-N-(1-methyl-1H-pyrrolo[2,3-c]pyridin-5-yl)-5-(6-{[(3S)-3-(morpholin-4-ylmethyl)-3,4-dihydroisoquinolin-2(1H)-yl]carbonyl}-1,3-benzodioxol-5-yl)-1H-pyrrole-3-carboxamide hydrochloride] were, in that order, 20.6 nM and 243 nM.
